Assay results as given in ChEMBL document CHEMBL5380850, “Discovery of the First Raptor (Regulatory-Associated Protein of mTOR) Inhibitor as a New Type of Antiadipogenic Agent” (J Med Chem, 2023).
Active and inactive are the calls of the source. The calls are words filed in the database; no cut-off is given here.

Tests used:
3T3-L1 [1] = assay: Anti-adipogenic activity against mouse 3T3-L1 cells assessed as downregulation of ACC mRNA expression level at 0.1 to 1 uM incubated for 6 days by RT-qPCR analysis; type: functional, cell-based; conditions: dose 0.1-1 µM, time 6.0 day
mTORC1 (Mus musculus) [2] = molecular target: mTORC1 (Mus musculus) (UniProt Q9JLN9); assay: Inhibition of mTORC1 formation in mouse 3T3-L1 cells assessed as decrease in phosphorylated-S6K1 expression level at 10 uM incubated for 24 hrs by Western blot analysis; type: cell-based
Mus musculus [3] = assay: Anti-obesity activity in high fat diet-induced obese C57BL/6J mouse model assessed as reduction in hepatic triglyceride level at 40 mg/kg, ip administered every two days for 46 days; type: functional, organism-based; conditions: time 46.0 day
3T3-L1 [4] = assay: Anti-adipogenic activity against mouse 3T3-L1 cells assessed as downregulation of C/EBPbeta mRNA expression level at 0.1 to 1 uM incubated for 24 hrs by RT-qPCR analysis; type: functional, cell-based; conditions: dose 0.1-1 µM
Mus musculus [5] = assay: Anti-obesity activity in high fat diet-induced obese C57BL/6J mouse model assessed as change in daily food uptake at 40 mg/kg, ip administered every two days for 46 days; type: functional, organism-based; conditions: time 46.0 day
mTORC1 (Mus musculus) [6] = molecular target: mTORC1 (Mus musculus) (UniProt Q9JLN9); assay: Inhibition of mTORC1 formation in mouse 3T3-L1 cells assessed as mLST8 expression level at 10 uM incubated for 24 hrs by reciprocal co-immunoprecipitation assay; type: cell-based
mTORC1 (Mus musculus) [7] = molecular target: mTORC1 (Mus musculus) (UniProt Q9JLN9); assay: Inhibition of mTORC1 formation in siRNA mediated Raptor knockdown mouse 3T3-L1 cells assessed as decrease in phosphorylated 4E-BP1 expression level at 10 uM incubated for 24 hrs by Western blot analysis; type: cell-based
Mus musculus [8] = assay: Anti-obesity activity in high fat diet-induced obese C57BL/6J mouse model assessed as reduction in hepatic steatosis by measuring lipid deposition at 40 mg/kg, ip administered every two days for 46 days; type: functional, organism-based; conditions: time 46.0 day
[9] = molecular target: Serine/threonine-protein kinase mTOR (Mus musculus) (UniProt Q9JLN9); assay: Inhibition of mTOR signalling in mouse 3T3-L1 cells assessed as downregulation of S6K1 phosphorylation at 0.1 to 10 uM incubated for 24 hrs by Western blot analysis; type: cell-based; conditions: dose 0.1-10 µM
3T3-L1 [10] = assay: Anti-adipogenic activity against mouse 3T3-L1 cells assessed as decrease in triglyceride level at 0.01 to 10 uM by Oil Red O staining based microscopic analysis; type: functional, cell-based; conditions: dose 0.01-10 µM
[11] = molecular target: Serine/threonine-protein kinase mTOR (Mus musculus) (UniProt Q9JLN9); assay: Inhibition of mTOR signalling in mouse 3T3-L1 cells assessed as mTOR phosphorylation at S2481 residue at 0.1 to 10 uM incubated for 24 hrs by Western blot analysis; type: cell-based; conditions: dose 0.1-10 µM
Mus musculus [12] = assay: Anti-obesity activity in high fat diet-induced obese C57BL/6J mouse assessed as reduction in visceral fat content by measuring perirenal white adipose tissue weight at 40 mg/kg, ip administered every two days for 46 days; type: functional, organism-based; conditions: time 46.0 day
Mus musculus [13] = assay: Anti-obesity activity in high fat diet-induced obese C57BL/6J mouse assessed as reduction in visceral fat content by measuring subcutis white adipose tissue weight at 40 mg/kg, ip administered every two days for 46 days; type: functional, organism-based; conditions: time 46.0 day
[14] = molecular target: Serine/threonine-protein kinase mTOR (Mus musculus) (UniProt Q9JLN9); assay: Inhibition of mTOR signalling in mouse 3T3-L1 cells assessed as […] of 4E-BP1 phosphorylation at 0.1 to 10 uM incubated for 24 hrs by Western blot analysis; type: cell-based; conditions: dose 0.1-10 µM
3T3-L1 [15] = assay: Anti-adipogenic activity against mouse 3T3-L1 cells assessed as downregulation of C/EBPdelta mRNA expression level at 0.1 to 1 uM incubated for 24 hrs by RT-qPCR analysis; type: functional, cell-based; conditions: dose 0.1-1 µM
[16] = molecular target: Serine/threonine-protein kinase mTOR (Mus musculus) (UniProt Q9JLN9); assay: Inhibition of mTOR signalling in mouse 3T3-L1 cells assessed as upregulation of LC3II expression level at 0.1 to 10 uM incubated for 24 hrs by Western blot analysis; type: cell-based; conditions: dose 0.1-10 µM
3T3-L1 [17] = assay: Anti-adipogenic activity against mouse 3T3-L1 cells at adipogenesis stage assessed as decrease in triglyceride level at 1 uM and measured upto 3 days by Oil Red O staining based spectroscopic analysis; type: functional, cell-based; conditions: time <= 3.0 day
3T3-L1 [18] = assay: Anti-adipogenic activity against mouse 3T3-L1 cells assessed as downregulation of FAS protein expression level at 0.1 to 1 uM incubated for 6 days by Western blot analysis; type: functional, cell-based; conditions: dose 0.1-1 µM, time 6.0 day
[19] = molecular target: Serine/threonine-protein kinase mTOR (Mus musculus) (UniProt Q9JLN9); assay: Inhibition of mTOR signalling in mouse 3T3-L1 cells assessed as upregulation of LC3I expression level at 0.1 to 10 uM incubated for 24 hrs by Western blot analysis; type: cell-based; conditions: dose 0.1-10 µM
mTORC1 (Mus musculus) [20] = molecular target: mTORC1 (Mus musculus) (UniProt Q9JLN9); assay: Inhibition of mTORC1 formation in siRNA mediated Raptor knockdown mouse 3T3-L1 cells assessed as decrease in 4E-BP1 expression level at 10 uM incubated for 24 hrs by Western blot analysis; type: cell-based
Mus musculus [21] = assay: Anti-obesity activity in high fat diet-induced obese C57BL/6J mouse model assessed as decrease in brown adipocyte size at 40 mg/kg, ip administered every two days for 46 days by Hand E staining based microscopic analysis; type: functional, organism-based; conditions: time 46.0 day
[22] = molecular target: Regulatory-associated protein of mTOR (Mus musculus) (UniProt Q8K4Q0); assay: Binding affinity to Raptor in mouse 3T3-L1 cells at 50 uM incubated overnight by pull-down assay
Chain of Regulatory-associated protein of mTOR (Mus musculus) (Q8K4Q0 whole entry, looked up): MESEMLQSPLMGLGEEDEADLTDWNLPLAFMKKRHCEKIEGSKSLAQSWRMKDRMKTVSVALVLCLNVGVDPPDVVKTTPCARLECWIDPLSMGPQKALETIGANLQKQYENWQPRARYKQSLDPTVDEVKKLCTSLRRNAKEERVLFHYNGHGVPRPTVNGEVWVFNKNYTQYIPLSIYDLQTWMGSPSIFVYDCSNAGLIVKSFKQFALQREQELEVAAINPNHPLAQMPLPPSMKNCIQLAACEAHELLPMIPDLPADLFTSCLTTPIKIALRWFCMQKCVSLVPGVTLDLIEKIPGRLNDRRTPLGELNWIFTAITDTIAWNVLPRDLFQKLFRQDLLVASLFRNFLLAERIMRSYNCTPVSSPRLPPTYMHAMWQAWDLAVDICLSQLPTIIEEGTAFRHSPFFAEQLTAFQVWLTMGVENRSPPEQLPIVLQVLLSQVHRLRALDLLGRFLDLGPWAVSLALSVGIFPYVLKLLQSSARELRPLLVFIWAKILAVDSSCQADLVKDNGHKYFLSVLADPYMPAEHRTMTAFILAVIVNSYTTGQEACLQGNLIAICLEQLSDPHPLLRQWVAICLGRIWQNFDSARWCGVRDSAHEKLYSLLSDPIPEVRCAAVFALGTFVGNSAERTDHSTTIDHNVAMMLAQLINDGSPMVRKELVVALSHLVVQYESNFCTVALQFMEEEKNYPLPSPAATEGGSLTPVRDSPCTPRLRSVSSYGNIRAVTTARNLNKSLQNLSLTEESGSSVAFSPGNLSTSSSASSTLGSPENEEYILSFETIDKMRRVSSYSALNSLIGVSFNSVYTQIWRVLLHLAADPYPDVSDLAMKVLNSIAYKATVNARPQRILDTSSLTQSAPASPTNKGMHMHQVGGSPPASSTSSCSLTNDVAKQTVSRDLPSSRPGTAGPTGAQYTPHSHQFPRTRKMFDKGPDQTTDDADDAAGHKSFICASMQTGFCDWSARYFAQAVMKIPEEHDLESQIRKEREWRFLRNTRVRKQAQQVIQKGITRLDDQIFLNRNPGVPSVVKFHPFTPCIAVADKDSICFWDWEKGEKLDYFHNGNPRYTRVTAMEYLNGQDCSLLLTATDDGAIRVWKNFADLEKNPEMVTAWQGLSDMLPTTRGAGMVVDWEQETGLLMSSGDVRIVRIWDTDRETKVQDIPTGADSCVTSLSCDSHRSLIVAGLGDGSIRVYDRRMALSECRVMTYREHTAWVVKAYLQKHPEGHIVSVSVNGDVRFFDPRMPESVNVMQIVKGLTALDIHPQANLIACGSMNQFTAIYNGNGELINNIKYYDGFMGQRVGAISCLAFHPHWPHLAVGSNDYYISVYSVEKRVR

mTORC1 (Mus musculus) [23] = molecular target: mTORC1 (Mus musculus) (UniProt Q9JLN9); assay: Inhibition of mTORC1 formation in siRNA mediated Raptor knockdown mouse 3T3-L1 cells assessed as decrease in phosphorylaed-S6K1 expression level at 10 uM incubated for 24 hrs by Western blot analysis; type: cell-based
Mus musculus [24] = assay: Anti-obesity activity in high fat diet-induced obese C57BL/6J mouse model assessed as increase in PGC-1alpha expression level in brown adipocyte at 40 mg/kg, ip administered every two days for 46 days by immunohistochemical analysis; type: functional, organism-based; conditions: time 46.0 day
mTORC1 (Mus musculus) [25] = molecular target: mTORC1 (Mus musculus) (UniProt Q9JLN9); assay: Inhibition of mTORC1 formation in mouse 3T3-L1 cells assessed as decrease in Raptor/mTOR interaction at 10 uM incubated for 24 hrs by reciprocal co-immunoprecipitation assay; type: cell-based
Mus musculus [26] = assay: Anti-obesity activity in high fat diet-induced obese C57BL/6J mouse model assessed as reduction in plasma ALT level at 40 mg/kg, ip administered every two days for 46 days; type: functional, organism-based; conditions: time 46.0 day
mTORC1 (Mus musculus) [27] = molecular target: mTORC1 (Mus musculus) (UniProt Q9JLN9); assay: Inhibition of mTORC1 formation in mouse 3T3-L1 cells assessed as decrease in Raptor/mLST8 interaction at 10 uM incubated for 24 hrs by reciprocal co-immunoprecipitation assay; type: cell-based
mTORC1 (Mus musculus) [28] = molecular target: mTORC1 (Mus musculus) (UniProt Q9JLN9); assay: Inhibition of mTORC1 formation in mouse 3T3-L1 cells assessed as Raptor expression level at 10 uM incubated for 24 hrs by reciprocal co-immunoprecipitation assay; type: cell-based
3T3-L1 [29] = assay: Anti-adipogenic activity in siRNA-mediated LC3B knockdown mouse 3T3-L1 cells assessed as decrease in triglyceride level at 10 uM by Oil Red O staining based microscopic analysis; type: functional, cell-based
Mus musculus [30] = assay: Anti-obesity activity in high fat diet-induced obese C57BL/6J mouse model assessed as increase in COX4 expression level in liver at 40 mg/kg, ip administered every two days for 46 days by immunohistochemical analysis; type: functional, organism-based; conditions: time 46.0 day
3T3-L1 [31] = assay: Anti-adipogenic activity against mouse 3T3-L1 cells assessed as decrease in triglyceride level at 1 uM by Oil Red O staining based spectroscopic analysis; type: functional; design: scale not given: the % may be the effect or the level left
3T3-L1 [32] = assay: Anti-adipogenic activity against mouse 3T3-L1 cells at terminal differentiation stage assessed as decrease in triglyceride level at 1 uM and measured on 6 to 9 days by Oil Red O staining based spectroscopic analysis; type: functional, cell-based; conditions: time 6-9 day

C=C(C)[C@@]12OC3(c4ccccc4)O[C@@H]1[C@@H]1[C@H](O)[C@](Cl)(COC(=O)c4ccccc4)[C@@H](O)[C@]4(O)C(=O)C(C)=C[C@H]4[C@@]1(O3)[C@H](C)[C@H]2OC(C)=O
Activity (3T3-L1 [1]): Active | inhibition (mTORC1 (Mus musculus) [2]): Active | Activity (Mus musculus [3]): Active | Activity (3T3-L1 [4]): Active | Activity (Mus musculus [5]): inactive | inhibition (mTORC1 (Mus musculus) [6]): Active | inhibition (mTORC1 (Mus musculus) [7]): Active | Activity (Mus musculus [8]): Active | inhibition [9]: Active | Activity (3T3-L1 [10]): Active | inhibition [11]: Active | Activity (Mus musculus [12]): Active | Activity (Mus musculus [13]): Active | inhibition [14]: Active | Activity (3T3-L1 [15]): Active | inhibition [16]: Active | Activity (3T3-L1 [17]): inactive | Activity (3T3-L1 [18]): Active | inhibition [19]: Active | inhibition (mTORC1 (Mus musculus) [20]): Active | Activity (Mus musculus [21]): Active | Activity [22]: Active | inhibition (mTORC1 (Mus musculus) [23]): Active | Activity (Mus musculus [24]): Active | inhibition (mTORC1 (Mus musculus) [25]): inactive | Activity (Mus musculus [26]): Active | inhibition (mTORC1 (Mus musculus) [27]): inactive | inhibition (mTORC1 (Mus musculus) [28]): Active | Activity (3T3-L1 [29]): Active | Activity (Mus musculus [30]): Active | Activity (3T3-L1 [31]): >50% | Activity (3T3-L1 [32]): Active
